Legend:
[1] = tested on: NCI-H358 cells; assay: NCI-H358 CTG proliferation assay (120 h) (NSCLC); format: cell-based; conditions: Homo sapiens
Protocol: NCI-H358 cells (ATCC No. CRL-5807) were dispensed into white bottom opaque 96 well plates (Perkin Elmer cat no. 5680) at a density of 2000 cells per well in 100 μL RPMI-1640 ATCC-Formulation (Gibco #A10491)+10% FCS. Cells were incubated overnight at 37° C. in a humidified tissue culture incubator at 5% CO2. Compounds (10 mM stock in DMSO) were added at logarithmic dose series using the HP Digital Dispenser D300 (Tecan), normalizing for added DMSO. For the T0 time point measurement, untreated cells were analyzed at the time of compound addition. Plates were incubated for 120 hours, and cell viability was measured using CellTiter-Glo luminescent cell viability reagent (Promega product code G7570). Viability (stated as percent of control) is defined as relative luminescence units RLU of each well divided by the RLU of cells in DMSO controls. IC50 values were determined from viability measurements by non-linear regression using a four parameter model.

[2] = target: T1, protein-protein interaction between SOS1 and KRAS G12C (Homo sapiens, UniProt P01116, C118S/C51S/C80L/G12C); assay: KRAS::SOS1 AlphaScreen binding assay
T1 construct: His6 (N)

[3] = target: KRASG12-dependent Ba/F3 cells (Homo sapiens, UniProt P01116, G12C, cells depend on it); assay: Ba/F3 cell model proliferation assay (AlamarBlue, 72 h); format: cell-based; conditions: Ba/F3 cells transduced with KRASG12C, read-out: IC50 Ba/F3 KRASG12C
Protocol: Ba/F3 Cell Model Generation and Proliferation Assay
Plasmids containing KRASG12 mutants were obtained from GeneScript. To generate KRASG12-dependent Ba/F3 models, Ba/F3 cells were transduced with retroviruses containing vectors that harbor KRASG12 isoforms. Platinum-E cells (Cell Biolabs) were used for retrovirus packaging. Retrovirus was added to Ba/F3 cells. To ensure infection, 4 μg/mL polybrene was added and cells were spinfected. […] Cells with an infection efficiency of 10% to 20% were further cultivated and puromycin selection with 1 μg/mL was initiated. As a control, parental Ba/F3 cells were used to show selection status. Selection was considered successful when parental Ba/F3 cells cultures died. To evaluate the transforming potential of KRASG12 mutations, the growth medium was no longer supplemented with IL-3. Ba/F3 cells harboring the empty vector were used as a control. Approximately ten days before conducting the experiments, puromycin was left out.
All treatments were performed in technical duplicates. The assay is run using a fully automated robotic system. Treated cells were incubated for 72 h at 37° C. with 5% CO2.
AlamarBlue™ (ThermoFisher), a viability stain, was added and fluorescence measured in the PerkinElmer Envision HTS Multilabel Reader.

[4] = tested on: pERK (Thr202/Tyr204) in NCI-H358_Cas9_SOS2 (SOS2 knocked); assay: ERK phosphorylation assay 2 (AlphaLISA SureFire Ultra p-ERK1/2); conditions: read-out: IC50 H358 pERK, ERK phosphorylation assay 2 (values marked with *)
Protocol: ERK Phosphorylation Assay
Low IC50 values in this assay setting are indicative of high potency of the compounds according to the invention.
GFP positive cells were collected and further expanded. These GFP-positive cell pools were single-cell diluted and SOS2 knock-out clones were identified via Western-blot and genomic DNA sequencing analysis.
Materials Used for the Assay:
AlphaLISA SureFire Ultra p-ERK1/2 (Thr202/Tyr204) Assay Kit (ALSU-PERK-A500)
Cells are seeded at 40,000 cells per well in /60 μL of RPMI with 10% FBS, non-essential amino acids, pyruvate and glutamax in Greiner TC 384 plates. The cells are incubated for 1 h at room temperature and then incubated overnight in an incubator at 37° C. and 5% CO2 in a humidified atmosphere. 60 nL compound solution (10 mM DMSO stock solution) is then added using a Labcyte Echo 550 device. After a 1 h incubation in the aforementioned incubator the medium is removed after centrifugation and the cells lysed by addition of 20 μL of 1.6-fold lysis buffer from the AlphaLISA SureFire Ultra pERK1/2 (Thr202/Tyr204) Assay Kit with added protease inhibitors, 100 nM trametinib+100 nM staurosporine. After 20 minutes of incubation at room temperature with shaking, 6 μL of each lysate sample is transferred to a 384-well Proxiplate and analyzed for pERK (Thr202/Tyr204) with the AlphaLISA SureFire Ultra pERK1/2 (Thr202/Tyr204) Assay Kit. 3 μL Acceptor Mix and 3 μL Donor Mix are added under subdued light and incubated for 2 h at room temperature in the dark, before the signal is measured on a PerkinElmer Envision HTS Multilabel Reader. The raw data were imported into and analyzed with the Boehringer Ingelheim proprietary software MegaLab (curve fitting based on the program PRISM, GraphPad Inc.).

T1 sequence (P01116 1-169 isoform P01116-2 G12C/C51S/C80L/C118S): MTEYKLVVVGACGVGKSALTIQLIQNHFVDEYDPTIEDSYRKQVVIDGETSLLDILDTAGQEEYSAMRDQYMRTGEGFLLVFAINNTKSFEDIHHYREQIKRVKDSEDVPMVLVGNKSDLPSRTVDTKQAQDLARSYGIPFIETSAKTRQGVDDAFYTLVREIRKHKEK
Chain of KRASG12-dependent Ba/F3 cells (P01116 whole entry G12C): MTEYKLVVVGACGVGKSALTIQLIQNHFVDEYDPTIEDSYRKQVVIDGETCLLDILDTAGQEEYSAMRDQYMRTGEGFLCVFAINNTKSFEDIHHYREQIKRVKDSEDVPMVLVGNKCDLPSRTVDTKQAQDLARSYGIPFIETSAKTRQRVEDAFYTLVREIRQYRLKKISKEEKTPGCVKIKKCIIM

IC50 [1] [µM] | IC50 ([2]; Table 36) [µM] | GI50 [3] [µM] | IC50 [4] [µM] | IC50 ([2]; Table 37) [µM] | IC50 ([2]; Table 39) [µM] | IC50 ([2]; Table 38) [µM] | SMILES
0.021 | – | – | – | – | – | – | C=CC(=O)N1CCN(c2nc(=O)n(-c3c(C)ccnc3C(C)C)c3nc(-c4c(O)cccc4F)c(F)cc23)[C@@H](C)C1 [sotorasib, reference compound]
– | 0.008 | 0.0976 | 0.0213 | – | – | – | C=CC(=O)N1CCN(c2cc(-c3noc([C@@]4(C)CCCc5sc(N)c(C#N)c54)n3)nc(OC3CCC4CCN(C)C43)n2)CC1 (stereo partly shown) [Ia-48]
– | – | 0.431 | 0.0813 | 0.022 | – | – | C/C=C/C(=O)N1CCN(c2cc(-c3noc([C@@]4(C)CCCc5sc(N)c(C#N)c54)n3)nc(O[C@@H](C)[C@@H]3CCCN3C)n2)CC12CC2 [Ia-163]
– | – | 0.271 | 0.0398 | 0.01 | – | – | C/C=C/C(=O)N1CCN(c2cc(-c3noc([C@@]4(C)CCCc5sc(N)c(C#N)c54)n3)nc(O[C@@H](C)[C@@H]3CCCN3C)n2)CC1 [Ia-155]
– | 0.0012 | 0.0003 | 0.0005 | – | – | – | C=CC(=O)N1CC(Oc2cc(O[C@@H](C)[C@@H]3CCCN3C)nc(-c3noc([C@@]4(C)CCCc5sc(N)c(C#N)c54)n3)c2)C1 [Ia-3]
– | 0.004 | 0.0077 | 0.0187 | – | – | – | C=CC(=O)N1CCC(Oc2cc(-c3noc([C@@]4(C)CCCc5sc(N)c(C#N)c54)n3)nc(N3CCN(C)C[C@@H]3C)c2)CC1 [Ia-79]
– | 0.002 | 0.0242 | 0.0098 | – | – | – | C=CC(=O)N1CC[C@H](C)N(c2cc(-c3noc([C@@]4(C)CCCc5sc(N)c(C#N)c54)n3)nc(O[C@@H](C)[C@@H]3CCCN3C)n2)CC1 [Ia-55]
– | 0.0018 | 0.0005 | 0.0007 | – | – | – | C=CC(=O)N1CCN(c2cc(-c3noc([C@@]4(C)CCCc5sc(N)c(C#N)c54)n3)nc(O[C@@H](C)[C@@H]3CC[C@H](C)N3C)n2)CC1 [Ia-137]
– | 0.007 | 0.0778 | 0.0509 | – | – | – | C=CC(=O)N1CCN(c2cc(-c3noc([C@@]4(C)CCCc5sc(N)c(C#N)c54)n3)nc(OC[C@@H]3CC4(CC4)CN3C)n2)CC1 [Ia-72]
– | 0.507 | 0.559 | 1.15 | – | – | – | C=CC(=O)N1CCC(Oc2cc(-c3noc([C@]4(C)CCCc5sc(N)c(C#N)c54)n3)nc(N3CCN(C)C[C@@H]3C)c2)CC1 [Ia-80]
– | – | 0.162 | 0.0265 | 0.021 | – | – | COC/C=C\C(=O)N1CCN(c2cc(O[C@@H](C)[C@@H]3CCCN3C)nc(-c3noc([C@@]4(C)CCCc5sc(N)c(C#N)c54)n3)n2)CC12CC2 [Ia-161]
– | 0.002 | 0.0173 | 0.0077 | – | – | – | C=CC(=O)N1CC[C@H](Oc2cc(O[C@@H](C)[C@@H]3CCCN3C)nc(-c3noc([C@@]4(C)CCCc5sc(N)c(C#N)c54)n3)c2)C1 [Ia-82]
– | 0.0017 | 0.0059 | 0.0028 | – | – | – | C=CC(=O)N1CCN(c2cc(-c3noc([C@@]4(C)CCCc5sc(N)c(C#N)c54)n3)nc(O[C@@H](C)[C@@H]3CCCN3C)n2)C2CCCC21 (stereo partly shown) [Ia-60]
– | 0.0015 | 0.0021 | 0.0014 | – | – | – | C=CC(=O)N1CCN(c2nc(O[C@@H](C)[C@@H]3CCCN3C)nc(-c3noc([C@@]4(C)CCCc5sc(N)c(C#N)c54)n3)n2)CC1 [Ia-139]
– | 0.0017 | 0.001 | 0.0011 | – | – | – | C=CC(=O)N1CCC(Oc2cc(O[C@@H](C)[C@@H]3CCCN3C)nc(-c3noc([C@@]4(C)CCCc5sc(N)c(C#N)c54)n3)c2)CC1 [Ia-4]
– | 0.0026 | 0.015 | 0.0109 | – | – | – | C=CC(=O)N1CCN(c2cc(-c3noc([C@@]4(C)CCCc5sc(N)c(C#N)c54)n3)nc(O[C@@H](C)[C@@H]3CCCN3C)n2)C[C@H]1C [Ia-63]
– | 0.003 | 0.0154 | 0.0056 | – | – | – | C=CC(=O)N1CCN(c2cc(-c3noc(C4(C)CCc5sc(N)c(C#N)c54)n3)nc(O[C@@H](C)[C@@H]3CCCN3C)n2)CC1 (stereo partly shown) [Ia-134]
– | – | 7.73 | 1.84 | – | 0.04 | – | C[C@H](Oc1nc(-c2noc([C@@]3(C)CCCc4sc(N)c(C#N)c43)n2)cc(N2CCN(C/C=C/C(=O)N(C)C)CC2)n1)[C@@H]1CCCN1C [Ia-169]
– | – | 0.0162 | 0.0124 | 0.005 | – | – | COC/C=C/C(=O)N1CCC(Oc2cc(O[C@@H](C)[C@@H]3CCCN3C)nc(-c3noc([C@@]4(C)CCCc5sc(N)c(C#N)c54)n3)c2)CC1 [Ia-159]
– | 0.0014 | 0.002 | 0.0009 | – | – | – | C=CC(=O)N1CCN(c2cc(O[C@@H](C)[C@@H]3CCCN3C)nc(-c3noc([C@@]4(C)CCCc5sc(N)c(C#N)c54)n3)n2)CC1 [Ia-136]
– | 0.105 | 0.303 | 0.0621 | – | – | – | C=CC(=O)N1[C@H](C)CN(c2cc(-c3noc([C@@]4(C)CCCc5sc(N)c(C#N)c54)n3)nc(O[C@@H](C)[C@@H]3CCCN3C)n2)C[C@H]1C [Ia-56]
– | 0.002 | 0.0074 | 0.0102 | – | – | – | C=CC(=O)N1CCN(c2cc(O[C@@H](C)[C@@H]3CCCN3C)nc(-c3noc([C@@]4(C)CCCc5sc(N)c(C#N)c54)n3)c2)CC12CCC2 [Ia-83]
– | 0.0019 | 0.0033 | 0.0015 | – | – | – | C=CC(=O)N1CCN(c2cc(O[C@@H](C)[C@@H]3CCCN3C)nc(-c3noc([C@@]4(C)CCCc5sc(N)c(C#N)c54)n3)c2)CC1 [Ia-26]
– | 0.319 | 3.48 | 0.3 | – | – | – | C=CC(=O)N1CCCN(c2cc(-c3noc([C@@]4(C)CCCc5sc(N)c(C#N)c54)n3)nc(O[C@@H](C)[C@@H]3CCCN3C)n2)[C@@H](C)C1 [Ia-58]
– | 0.003 | 0.0237 | 0.0214 | – | – | – | C=CC(=O)N1CCN(c2cc(-c3noc([C@@]4(C)CCCc5sc(N)c(C#N)c54)n3)nc(OC[C@@H]3C[C@@H]4C[C@@H]4N3C)n2)CC1 [Ia-71]
– | – | 0.189 | 0.0772 | – | – | 0.015 | CC#CC(=O)N1CCN(c2cc(-c3noc([C@@]4(C)CCCc5sc(N)c(C#N)c54)n3)nc(O[C@@H](C)[C@@H]3CCCN3C)n2)C2CCCC21 (stereo partly shown) [Ia-167]
– | – | 1.52 | 0.238 | 0.016 | – | – | COC/C=C/C(=O)N1CCN(c2cc(-c3noc([C@@]4(C)CCCc5sc(N)c(C#N)c54)n3)nc(O[C@@H](C)[C@@H]3CCCN3C)n2)CC1 [Ia-157]
– | – | 0.0125 | 0.004 | – | – | 0.004 | CC#CC(=O)N1CCN(c2cc(O[C@@H](C)[C@@H]3CCCN3C)nc(-c3noc([C@@]4(C)CCCc5sc(N)c(C#N)c54)n3)n2)CC12CC2 [Ia-165]

SMILES | IC50 [1] [µM] | IC50 ([2]; Table 36) [µM] | GI50 [3] [µM] | IC50 [4] [µM] | IC50 ([2]; Table 37) [µM] | IC50 ([2]; Table 39) [µM] | IC50 ([2]; Table 38) [µM]
C=CC(=O)N1C2CCC1CN(c1cc(-c3noc([C@@]4(C)CCCc5sc(N)c(C#N)c54)n3)nc(O[C@@H](C)[C@@H]3CCCN3C)n1)C2 [Ia-59] | – | 0.003 | 0.0325 | 0.0055 | – | – | –

Reference: patent publication US20230212164A1, “ANNULATED 2-AMINO-3-CYANO THIOPHENES AND DERIVATIVES FOR THE TREATMENT OF CANCER” (BOEHRINGER INGELHEIM INTERNATIONAL GMBH, priority 2020, published 2023)
